One block for each compound: values may come before it. *1 amine or outer side, *2 acyl side, *3 side chain or, on linkers, in order; H or OH if unused. Where a SMILES comes first, the peptide text is derived from it. Bridges are numbered along the chain shown (N, C = ends). Roman numbers before positions name the chains, in order. [ ]: non-standard residue; d: D form. Actinocin(9to1) = Cc1c2oc3c(C)ccc(C(=O)[*:1])c3nc-2c(C(=O)[*:2])c(N)c1=O; NMeV = CN[C@H](C(=O)O)C(C)C; Sar = CNCC(=O)O
Assays:
[1] = test system: 28S and 18S rRNA (total RNA from HCT116 cells); assay: Competition for rRNA binding with compound A-1 (agarose gel electrophoresis); design: species or system human; conditions: 10 uM compound A-1; increasing amount of competitor (Actinomycin D 10, 100, 200 uM; pUC18 0.25-4 ug)
Protocol: Compounds that bound to the 28S rRNA were subjected to competition for rRNA binding with Actinomycin D, Se2SAP (FIG. 3A of US20040110820 published on Jun. 10, 2004) and double-stranded DNA (dsDNA) in confirmatory studies. In such assays, 1 ug of total RNA from HCT116 cells was incubated with 10 uM compound A-1 in a volume of 10 uL in the absence/ presence of (a) increasing amount of Actinomycin D (10, 100 and 200 uM) for 15 min at room temperature, (b) increasing amount of Se2SAP (see figure) for 30 min at room temperature, or (c) increasing amount of pUC18 (0.25, 0.5, 1, 2 and 4 ug) for 30 min at room temperature, followed by agarose gel electrophoresis.

[2] = target: T1, nucleolin/nucleic acid ligand (Homo sapiens, UniProt P19338); assay: EMSA, interference with nucleolin/nucleic acid ligand interactions (ligands derived from human ribosomal DNA); format: binding
T1 construct: without the N-terminal acidic stretches domain
Protocol: (§1) The following assays assessed effects of compounds on interactions between nucleolin and nucleic acid ligands capable of forming quadruplex (QP) and hairpin (HP) secondary structures. Nucleic acid ligands tested were a cMyc QP DNA having nucleotide sequence 5′-[…]-3′ (SEQ ID NO: 176) and a HP pre-rRNA region to which nucleolin binds, having the sequence 5′-[…]-3′ (SEQ ID NO: 177). In the assays, recombinant nucleolin (˜250 nM), which was fused to maltose binding protein and had the sequence under accession number NM_005381 without the N-terminal acidic stretches domain, was incubated with each of the two ^32P-labeled nucleic acid ligands (10 or 250 nM). Nucleolin and the nucleic acid ligand were incubated in the presence or absence of a test compound of Formula A-1, B-1, C-6 or C-7 in an incubation buffer (12.5 mM Tris, pH 7.6, 60 mM KCl, 1 mM MgCl2, 0.1 mM EDTA, 1 mM DTT, 5% glycerol, 0.1 mg/ml BSA) for 30 minutes at room temperature. Structures for A-1 and B-1 are shown above and structures for C-6 and C-7 are shown hereafter: [drawing 17] The resulting complexes were separated on a 6% DNA retardation gel using 0.5× TBE with 20 mM KCl as a running buffer (i.e., electrophoresis mobility shift assay (EMSA)).
The assay also was conducted using nucleic acid ligands derived from human ribosomal DNA. Sequences of these nucleic acids are shown in the preceding example. […]

[3] = test system: rRNA synthesis, HCT-116; assay: PCR assay of rRNA synthesis from 45S rDNA (5' ETS probe); format: cell-based; conditions: Homo sapiens; rRNA synthesis, HCT-116; read-out: QPCRrDNA IC50_HCT-116
Protocol: Assays were conducted to determine the effects of compounds on rRNA synthesis from 45S rDNA. In particular, compound A-1 at various concentrations was incubated with cells and tested for an effect on rRNA synthesis after a two hour or four hour incubation with the compound. Synthesized rRNA was quantified by a polymerase chain reaction (PCR) assay. A primer/probe set was designed using Primer Express software and synthesized by Applied Biosystems. The 5′ ETS Probe utilized had the following sequence (@ its 3′ end): 6FAM-TTG ATC CTG CCA GTA GC-MGBNFQ (SEQ ID NO:227). The primer sequences were as follows:
(§2) Mix • 1 ug RNA • 2.5 ul 10× Taq Man buffer • 5.5 ul 25 mM MgCl2 • 5 ul of a mix of dNTP (500 uM each) • 1.2 ul random hexamer primer (2.5 uM stock) • 0.5 ul RNase inhibitor (0.4 units/ul) • 0.6 ul Reverse Transcriptase (1.2 units/ul) • bring to 25 ul total volume with water
(§3) Mix • 5 ul Reverse Transcriptase reaction product • 12.5 ul 2×PCR mix • 1 uM forward primer • 1 uM reverse primer • 0.5 uM Taq Man probe • 500 nM Rox • Adjust to 25 ul final volume with water
(§4) PCR cycles • 95 degrees C. 1 minute • 40 cycles of • 95 degrees C. 15 seconds • 60 degrees C. 1 minute.
(§5) Fluorescence of digested label was detected and quantified. […] The effect of other compounds on rRNA synthesis also were assessed in the assay, and provided in the table hereafter are IC50 values of selected compounds pertaining to rRNA synthesis and cMYC RNA synthesis.

[4] = test system: cMYC RNA synthesis, HCT-116; assay: PCR control assay of C-myc transcription; format: cell-based; conditions: Homo sapiens, read-out: QPCRMYC IC50_HCT-116
Protocol: A control assay that detected effects of the compounds on C-myc transcription also was conducted using a primer/probe set purchased from ABI (TaqMan Gene Expression Assay with assay ID: Hs99999003_m1). The following assay protocol was utilized:
as §2, §3, §4, §5

[5] = test system: 28S rRNA and 18S rRNA (total RNA from HCT116 cells); assay: Human rRNA interaction screening assay (agarose gel electrophoresis mobility shift); format: binding; conditions: 1 ug total RNA; 10 uM compound or 0.5 ug/mL PI, 15 min, room temperature
Protocol: RNA was isolated from HCT116 cells (RNeasy kit, QIAGEN) and contacted in vitro with each compound from a library of compounds. In representative assays, 1 ug of total RNA from HCT116 cells was incubated with 0.5 ug/mL of propidium iodide (PI), 10 uM compound A-1 or another compound in the library in a volume of 10 uL for 15 min at room temperature, followed by agarose gel electrophoresis. Fluorescence of the compounds was visualized on each gel. […] Compounds C-1, C-2, C-3, C-4 and C-5 have the following general formula: [drawing 15] [drawing 16]

[6] = target: T2, nucleolin/cMyc QP DNA (Homo sapiens, UniProt P19338); assay: EMSA, nucleolin/QP ligand interaction; format: binding; conditions: nucleolin ~250 nM, 32P-labeled ligand 10 or 250 nM, 30 minutes (FIG. 1, FIG. 2)
T2 construct: without the N-terminal acidic stretches domain
Protocol: as §1

[7] = target: T3, nucleolin/HP pre-rRNA region (Homo sapiens, UniProt P19338); assay: EMSA, nucleolin/HP ligand interaction; format: binding; conditions: nucleolin ~250 nM, 32P-labeled ligand 10 or 250 nM, 30 minutes (FIG. 1, FIG. 2)
T3 construct: without the N-terminal acidic stretches domain
Protocol: as §1

[8] = target: T4, nucleolin (Homo sapiens, UniProt P19338); assay: EMSA, relative affinity of nucleic acid ligands for nucleolin; format: binding; design: key: +: weakest nucleolin affinity; ++++: strongest nucleolin affinity
T4 construct: without the N-terminal acidic stretches domain
Protocol: as §1
The assay also was conducted using nucleic acid ligands derived from human ribosomal DNA. Sequences of these nucleic acids are shown in the preceding example. […] A “+” represents the weakest nucleolin affinity and least interference by compound A-1 and a “++++” represents the strongest nucleolin affinity and greatest interference by compound A-1.

[9] = target: T4, nucleolin; assay: Filter-binding assay of 32P-labeled quadruplexes and Nucleolin; conditions: for Kd: 0.2 nM 32P-labeled quadruplex, read-out: Kd, apparent dissociation constant of nucleolin protein and the nucleic acid ligand
Protocol: The assay also was conducted in a filter-binding format. […] The protein-quadruplex mixtures were incubated for 30 min at ambient temperature and filtered through mixed cellulose ester membrane filters (Millipore) with gentle suction. The filters were washed twice with […] of binding buffer, dried and OptiPhase ‘SuperMix’ scintillation cocktail (Perkin Elmer) was added to the wells. Radioactivity was assayed with MicroBeta scintillation counter (Perkin Elmer). Binding curves were constructed and apparent Kd's and Bmax's for the complexes were calculated using the GraphPad Prizm software program (GraphPad Software). In the following table, the nucleic acid ligand is designated in the first column using the nomenclature described herein; the second column provides the nucleotide sequence of the nucleic acid ligand; the third column is the conformation of the ligand as determined by circular dichroism (M is mixed, P is parallel, A is antiparallel, C is complex, SS is single-stranded and ND is not determined); the fourth column is the dissociation constant determined by the filter binding assay of nucleolin protein and the nucleic acid ligand; the fifth column is a Bmax constant determined by the filter binding assay, which is the percent of active nucleic acid ligand in each assay; and the sixth column presents the concentration of Compound A-1 required to dissociate half of the complexed nucleic acid ligand and nucleolin protein, as determined by the EMSA assay described above.

T4 sequence (P19338 284-710 limits assumed): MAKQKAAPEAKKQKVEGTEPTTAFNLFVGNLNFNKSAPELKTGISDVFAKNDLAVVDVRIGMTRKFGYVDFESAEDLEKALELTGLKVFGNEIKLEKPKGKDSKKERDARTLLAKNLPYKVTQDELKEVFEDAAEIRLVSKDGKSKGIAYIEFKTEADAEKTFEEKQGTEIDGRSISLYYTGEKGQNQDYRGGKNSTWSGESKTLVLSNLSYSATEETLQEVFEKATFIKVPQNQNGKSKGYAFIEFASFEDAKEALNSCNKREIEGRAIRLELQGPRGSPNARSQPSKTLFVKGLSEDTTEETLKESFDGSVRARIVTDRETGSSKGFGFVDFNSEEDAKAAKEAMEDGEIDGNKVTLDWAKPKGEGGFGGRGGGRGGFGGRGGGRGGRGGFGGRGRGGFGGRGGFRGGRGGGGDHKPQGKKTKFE
T3 sequence (P19338 284-710 limits assumed): as above
T2 sequence (P19338 284-710 limits assumed): as above
T1 sequence (P19338 284-710 limits assumed): as above

Compound: Cc1c2oc3c(C)ccc(C(=O)N[C@@H]4C(=O)N[C@H](C(C)C)C(=O)N5CCC[C@H]5C(=O)N(C)CC(=O)N(C)[C@@H](C(C)C)C(=O)O[C@@H]4C)c3nc-2c(C(=O)N[C@@H]2C(=O)N[C@H](C(C)C)C(=O)N3CCC[C@H]3C(=O)N(C)CC(=O)N(C)[C@@H](C(C)C)C(=O)O[C@@H]2C)c(N)c1=O [Actinomycin D, reference compound] (I: T[dV]P[Sar][NMeV] / II: T[dV]P[Sar][NMeV]; ester I:1-I:C, II:1-II:C; linker I:N-II:N via Actinocin(9to1))
competition with compound A-1 for rRNA binding [1]: failed to compete with compound A-1 for rRNA | interference with nucleolin/nucleic acid ligand interactions [2]: but not Actinomycin D, interfered with nucleolin/nucleic acid ligand interactions

IC50 [3]: 50 nM | IC50 [4]: 300 nM
Compound: CC(=O)N1CCN(c2c(F)cc3c(=O)c(C(=O)NCCN4CCCC4)cn4c3c2Oc2cc(Cl)ccc2-4)CC1 [Compound 4]

IC50 [3]: 50 nM | IC50 [4]: 300 nM
Compound: O=C(NCCN1CCCC1)c1cn2c3c(c(N4CCOCC4)c(F)cc3c1=O)Oc1cc(Cl)ccc1-2 [Compound 5]

IC50 [3]: 80 nM | IC50 [4]: 300 nM
Compound: CC(=O)N1CCN(c2ccc3c(=O)c(C(=O)NCCN4CCCC4)c4sc5ccccc5n4c3n2)CC1 [Compound 6]

IC50 [3]: 80 nM | IC50 [4]: 300 nM
Compound: O=C(NCCN1CCOCC1)c1c(=O)c2cnc(N3CCNCC3)nc2n2c1sc1ccccc12 [Compound 7]

IC50 [3]: 50 nM | IC50 [4]: 300 nM
Compound: CC(=O)N1CCN(c2ccc3c(=O)n(CCCN4CCCC4)c4nc5ccccc5n4c3n2)CC1 [Compound 8]

IC50 [3]: 50 nM | IC50 [4]: 300 nM
Compound: COc1ccc2c(=O)c(C(=O)NCCN3CCCC3)c3sc4ccccc4n3c2n1 [Compound 9]

Compound: CN1CCCC1CCNC(=O)c1cn2c3c(c(N4CCC(c5ccccn5)C4)c(F)cc3c1=O)Oc1cc3ccccc3cc1-2 (stereo not drawn) [Compound C-1]
binding to 28S versus 18S rRNA [5]: selective binding to 28S over 18S

Compound: CN1CCCC1CCNC(=O)c1cn2c3c(c(N4CCC(c5ccccn5)C4)c(F)cc3c1=O)Oc1cc3ccccc3cc1-2 (stereo not drawn) [Compound C-2]
binding to 28S versus 18S rRNA [5]: selective binding to 28S over 18S

Compound: CN1CCCC1CCNC(=O)c1cn2c3c(c(N4CCC(c5ccccn5)C4)c(F)cc3c1=O)Oc1cc3ccccc3cc1-2 (stereo not drawn) [Compound C-3]
binding to 28S versus 18S rRNA [5]: less selectivity for 28S over 18S

Compound: CN1CCCC1CCNC(=O)c1cn2c3c(c(N4CCC(c5ccccn5)C4)c(F)cc3c1=O)Oc1cc3ccccc3cc1-2 (stereo not drawn) [Compound C-4]
binding to 28S versus 18S rRNA [5]: less selectivity for 28S over 18S

Compound: CN1CCCC1CCNC(=O)c1cn2c3c(c(N4CCC(c5ccccn5)C4)c(F)cc3c1=O)Oc1cc3ccccc3cc1-2 (stereo not drawn) [Compound C-5]
binding to 28S versus 18S rRNA [5]: specific binding to 28S over 18S

Compound: CC(=O)N1CCN(c2c(F)cc3c(=O)c(C(=O)NCCN4CCCC4)cn4c3c2Oc2cc(Cl)ccc2-4)CC1 [Compound C-6]
interference with the nucleolin/QP ligand interaction [6]: interfered with the nucleolin/QP ligand interaction | interference with the nucleolin/HP ligand interaction [7]: did not significantly interfere with the nucleolin/HP ligand interaction

Compound: CC(=O)N1CCN(c2c(F)cc3c(=O)c(C(=O)NCCC4CCCN4C)cn4c3c2Oc2cc3ccccc3cc2-4)CC1 (stereo not drawn) [Compound C-7]
interference with the nucleolin/QP ligand interaction [6]: interfered with the nucleolin/QP ligand interaction | interference with the nucleolin/HP ligand interaction [7]: did not significantly interfere with the nucleolin/HP ligand interaction

Compound: CC[N+](C)(CC)CCC[n+]1c(-c2ccccc2)c2cc(N)ccc2c2ccc(N)cc21.[I-].[I-] [PI, propidium iodide, reference compound]
binding to 28S versus 18S rRNA [5]: did not discriminate in its binding to 18S and 28S rRNA

Compound: GGGAGGGCGCGCGGGTCGGGG (listed as DNA, chemistry not given here; listed as Homo sapiens) [Compound 8749NT]
Affinity for Nucleolin (relative) [8]: + | Bmax, percent of active nucleic acid ligand [9]: 13% | Kd [9]: 1.9 nM

Compound: GGGAGGGGCACGGGCCGGGGGCGGGACGGG (listed as DNA, chemistry not given here; listed as Homo sapiens) [Compound 7733T]
Affinity for Nucleolin (relative) [8]: + | Bmax, percent of active nucleic acid ligand [9]: 53% | Kd [9]: 0.8 nM

Compound: GGGGCGCGGCGGGGGGAGAAGGGTCGGGGCGGCAGGGG (listed as DNA, chemistry not given here; listed as Homo sapiens) [Compound 11028NT]
Affinity for Nucleolin (relative) [8]: + | Bmax, percent of active nucleic acid ligand [9]: 32% | Kd [9]: 2.7 nM

Compound: GGGGGCGGGCTCCGGCGGGTGCGGGGGTGGGCGGGCGGGGCCGGGGGTGGGGTCGGCGGGGG [Compound 8511NT]
Affinity for Nucleolin (relative) [8]: ++++ | Bmax, percent of active nucleic acid ligand [9]: 100% | Kd [9]: 0.6 nM

Compound: GGGTCGGGGGCGGTGGTGGGCCCGCGGGGG (listed as DNA, chemistry not given here; listed as Homo sapiens) [Compound 6183NT]
Affinity for Nucleolin (relative) [8]: + | Bmax, percent of active nucleic acid ligand [9]: 26% | Kd [9]: 2.2 nM
